Tested on: tomato seedlings
Test: Tomato SAR trial, greenhouse foliar vigour (phytotoxicity) ratings (Example 9)
Conditions: 0, severe foliar injury; 10, foliage green in excellent health; each treatment followed by BONZI 5 ppm
Method: Tomatoes were seeded in a green house and the SAR compositions applied three separate times, first as a drench nine days after seeding, the second at the 2-leaf stage 15 days after seeding, and finally as a foliar application in the filed approximately two months from seeding. Each treatment was followed up by a 5 ppm application of a plant growth regulator comprising paclobutrazol available under the name BONZI from Syngenta, Greensboro, N.C. […] This procedure was replicated four times in a randomized complete block design. […] Phytotoxicity ratings were also taken in green house prior to transplanting.

CC1(C)CC[C@]2(C(=O)O)CC[C@]3(C)C(=CC[C@@H]4[C@@]5(C)CC[C@H](O)C(C)(C)[C@@H]5CC[C@]43C)[C@@H]2C1 [Sapogenin 6, Oleanolic acid] was tested, and the “Greenhouse Evaluations: Foliar Vigour Ratings (0-10)” value (“Greenhouse Evaluations” below) was 4.3.

With CC1(C)CC[C@]2(C(=O)O)CC[C@]3(C)C(=CC[C@@H]4[C@@]5(C)CC[C@H](O)C(C)(C)[C@@H]5CC[C@]43C)[C@@H]2C1 [Sapogenin 3, Oleanolic acid] the “Greenhouse Evaluations” value was 4.7.

For COC(=O)[C@@]1(C)CC[C@]2(C(=O)O)CC[C@]3(C)C(=CCC4[C@@]5(C)CCC(O)[C@@](C)(CO)C5CC[C@]43C)C2C1 (stereo partly drawn) [Sapogenin 1, Phytolaccagenic acid], the “Greenhouse Evaluations” value was 5.7.

In the case of CC1(C)CC[C@]2(C(=O)O)CC[C@]3(C)C(=CC[C@@H]4[C@@]5(C)CC[C@H](O)[C@@](C)(CO)[C@@H]5CC[C@]43C)[C@@H]2C1 [Sapogenin 5, Hederagenin], the “Greenhouse Evaluations” value is reported as 4.3.

In the case of CC1(C)CC[C@]2(C(=O)O)CC[C@]3(C)C(=CC[C@@H]4[C@@]5(C)CC[C@H](O)[C@@](C)(CO)[C@@H]5CC[C@]43C)[C@@H]2C1 [Sapogenin 2, Hederagenin], the “Greenhouse Evaluations” value is reported as 5.3.

With COC(=O)[C@@]1(C)CC[C@]2(C(=O)O)CC[C@]3(C)C(=CCC4[C@@]5(C)CCC(O)[C@@](C)(CO)C5CC[C@]43C)C2C1 (stereo partly drawn) [Sapogenin 4, Phytolaccagenic acid] the “Greenhouse Evaluations” value was 4.3.

From patent US20050261129A1, “Method of protecting plants from bacterial and fungal diseases” (priority 2003, published 2005)
